Where “and” joins values, the source holds several entries; their conditions need not be identical. Identical values can stand only once. Toxic doses and inconclusive results are not listed.
Tested on: CD2F1 mice, L1210 leukemia ip, survival T/C
Assay: NCI In Vivo Anticancer Drug Screen. Data for tumor model L1210 Leukemia (intraperitoneal) in CD2F1 (CDF1) mice
Conditions: higher = longer survival
Summary of the method: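 Implant tumor; dose compound or vehicle; measure endpoint in both groups; report treated divided by control.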

[1] = endpoint: mean survival time, dose: 50.0 mg/kg/injection, schedule: Q01DX009 (ip), vehicle: Klucel (hydroxypropylcellulose) (HPC)
[2] = endpoint: mean survival time, dose: 100.0 mg/kg/injection, schedule: Q01DX009 (ip), vehicle: Klucel (hydroxypropylcellulose) (HPC)
[3] = endpoint: mean survival time, dose: 200.0 mg/kg/injection, schedule: Q01DX009 (ip), vehicle: Klucel (hydroxypropylcellulose) (HPC)
[4] = endpoint: mean survival time, dose: 100.0 mg/kg/injection, schedule: Q01DX001 (ip), vehicle: saline with Tween-80
[5] = endpoint: mean survival time, dose: 200.0 mg/kg/injection, schedule: Q01DX001 (ip), vehicle: saline with Tween-80
[6] = endpoint: mean survival time, dose: 400.0 mg/kg/injection, schedule: Q01DX001 (ip), vehicle: saline with Tween-80

**Q.** Which T/C (endpoint: mean survival time, dose: 12.5 mg/kg/injection, schedule: Q01DX009 (ip), vehicle: Klucel (hydroxypropylcellulose) (HPC)) does the source give for O=C1/C(=C/c2ccc([N+](=O)[O-])cc2)CCc2ccccc21 here?
**A.** 97 % of control

**Q.** And the T/C (endpoint: mean survival time, dose: 25.0 mg/kg/injection, schedule: Q01DX009 (ip), vehicle: Klucel (hydroxypropylcellulose) (HPC))?
**A.** 96 % of control

**Q.** And the T/C [1]?
**A.** 94 % of control

**Q.** And the T/C [2]?
**A.** 92 % of control

**Q.** And the T/C [3]?
**A.** 91 % of control

**Q.** For CC1Cc2c(N)cccc2C1=O (stereo unspecified), which T/C [4] is on record?
**A.** 98 % of control

**Q.** And the T/C [5]?
**A.** 87 % of control

**Q.** What about the T/C [6] of the same molecule?
**A.** 91 % of control

**Q.** Which results are given for O=C(Nc1ccc(F)cc1)Nc1cccc2ccccc12?
**A.** T/C (endpoint: mean survival time, dose: 100.0 mg/kg/injection, schedule: Q04DX003 (ip), vehicle: saline with Tween-80): 96 % of control; T/C (endpoint: mean survival time, dose: 200.0 mg/kg/injection, schedule: Q04DX003 (ip), vehicle: saline with Tween-80): 96 % of control; T/C (endpoint: mean survival time, dose: 400.0 mg/kg/injection, schedule: Q04DX003 (ip), vehicle: saline with Tween-80): 111 % of control

**Q.** CCN(CC)c1ccc(-c2nc3ccccc3s2)cc1 was tested. Which T/C [1] did it give?
**A.** 106 % of control

**Q.** What about the T/C [2] of the same molecule?
**A.** 98 % of control

**Q.** What about the T/C [3] of the same molecule?
**A.** 102 % of control

**Q.** Which results are given for C=CC(NC(=O)CN)C(=O)O (stereo unspecified)?
**A.** T/C [4]: 115 % of control; T/C (endpoint: mean survival time, dose: 100.0 mg/kg/injection, schedule: Q04DX002 (ip), vehicle: saline): 107 % of control; T/C [5]: 105 % of control; T/C (endpoint: mean survival time, dose: 200.0 mg/kg/injection, schedule: Q04DX002 (ip), vehicle: saline): 93 % of control; T/C [6]: 114 % of control; T/C (endpoint: mean survival time, dose: 400.0 mg/kg/injection, schedule: Q04DX002 (ip), vehicle: saline): 110 % of control

**Q.** CC(C)(CNC1CCCCC1)OC(=O)c1ccc(N)cc1 was tested. Which T/C (endpoint: mean survival time, dose: 5.0 mg/kg/injection, schedule: Q01DX001 (ip), vehicle: saline) did it give?
**A.** 102 % of control

**Q.** And the T/C (endpoint: mean survival time, dose: 10.0 mg/kg/injection, schedule: Q01DX001 (ip), vehicle: saline)?
**A.** 96 % of control

**Q.** And the T/C (endpoint: mean survival time, dose: 20.0 mg/kg/injection, schedule: Q01DX001 (ip), vehicle: saline)?
**A.** 98 % of control

**Q.** What about the T/C (endpoint: mean survival time, dose: 40.0 mg/kg/injection, schedule: Q01DX001 (ip), vehicle: saline) of the same molecule?
**A.** 104 % of control

**Q.** Which results are given for Cc1cccnc1Br?
**A.** T/C (endpoint: mean survival time, dose: 12.5 mg/kg/injection, schedule: Q01DX009 (ip), vehicle: water): 95 % of control; T/C (endpoint: mean survival time, dose: 25.0 mg/kg/injection, schedule: Q01DX009 (ip), vehicle: water): 103 % of control; T/C (endpoint: mean survival time, dose: 50.0 mg/kg/injection, schedule: Q01DX009 (ip), vehicle: water): 95 % of control; T/C (endpoint: mean survival time, dose: 100.0 mg/kg/injection, schedule: Q01DX009 (ip), vehicle: water): 95 % of control; T/C (endpoint: mean survival time, dose: 200.0 mg/kg/injection, schedule: Q01DX009 (ip), vehicle: water): 88 % of control

**Q.** Which results are given for Nc1ccc(-c2ccccc2-c2ccccc2)cc1?
**A.** T/C (endpoint: mean survival time, dose: 100.0 mg/kg/injection, schedule: Q01DX009 (ip), vehicle: acetone): 101 % of control; T/C (endpoint: mean survival time, dose: 200.0 mg/kg/injection, schedule: Q01DX009 (ip), vehicle: acetone): 105 % of control

**Q.** With CC([NH-])C(=O)O.CC([NH-])C(=O)O.CC([NH-])C(=O)O.[Co+3] (stereo unspecified) as the molecule, how does the T/C (endpoint: mean survival time, dose: 6.25 mg/kg/injection, schedule: Q01DX009 (ip), vehicle: saline) read?
**A.** 98 % of control

**Q.** What about the T/C (endpoint: mean survival time, dose: 12.5 mg/kg/injection, schedule: Q01DX009 (ip), vehicle: saline) of the same molecule?
**A.** 112 % of control

**Q.** And the T/C (endpoint: mean survival time, dose: 25.0 mg/kg/injection, schedule: Q01DX009 (ip), vehicle: saline)?
**A.** 107 % of control

**Q.** And the T/C (endpoint: mean survival time, dose: 50.0 mg/kg/injection, schedule: Q01DX009 (ip), vehicle: saline)?
**A.** 124 % of control

**Q.** Which results are given for O=C1C=CC(=O)c2c(O)cccc21?
**A.** T/C (endpoint: mean survival time, dose: 3.13 mg/kg/injection, schedule: Q01DX009 (ip), vehicle: saline with Tween-80): 94 % of control; T/C (endpoint: mean survival time, dose: 6.25 mg/kg/injection, schedule: Q01DX009 (ip), vehicle: saline with Tween-80): 92 % of control; T/C (endpoint: mean survival time, dose: 12.5 mg/kg/injection, schedule: Q04DX003 (ip), vehicle: saline with Tween-80): 88 % of control

**Q.** What does the source list for COC(=O)C1C2(C)CCc3cc(OC)ccc3C2=CC(=O)C1(C)C(=O)OC (stereo unspecified)?
**A.** T/C (endpoint: mean survival time, dose: 100.0 mg/kg/injection, schedule: Q04DX003 (sc), vehicle: steriod suspending solution): 97 % of control; T/C (endpoint: mean survival time, dose: 200.0 mg/kg/injection, schedule: Q04DX003 (sc), vehicle: steriod suspending solution): 103 % of control; T/C (endpoint: mean survival time, dose: 400.0 mg/kg/injection, schedule: Q04DX003 (sc), vehicle: steriod suspending solution): 98 % of control

**Q.** How did the T/C (endpoint: median survival time, dose: 0.4 mg/kg/injection, schedule: Q01DX005 (iv), vehicle: other) turn out when C[C@@](O)(/C=C/[C@H]1CC=CC(=O)O1)[C@@H](C[C@@H](O)\C=C/C=C\C=C\CO)OP(=O)(O)O was run?
**A.** 109 % of control

**Q.** And the T/C (endpoint: median survival time, dose: 0.78 mg/kg/injection, schedule: Q01DX005 (iv), vehicle: other)?
**A.** 109 % of control

**Q.** What about the T/C (endpoint: median survival time, dose: 1.56 mg/kg/injection, schedule: Q01DX005 (iv), vehicle: other) of the same molecule?
**A.** 112 % of control

**Q.** And the T/C (endpoint: median survival time, dose: 1.56 mg/kg/injection, schedule: Q01DX005 (iv), vehicle: saline)?
**A.** 121 % of control

**Q.** And the T/C (endpoint: median survival time, dose: 1.56 mg/kg/injection, schedule: Q01DX009 (ip), vehicle: other)?
**A.** 243 % of control

**Q.** What about the T/C (endpoint: median survival time, dose: 1.56 mg/kg/injection, schedule: Q01DX009 (ip), vehicle: saline) of the same molecule?
**A.** 216 % of control

**Q.** And the T/C (endpoint: median survival time, dose: 3.12 mg/kg/injection, schedule: Q01DX009 (ip), vehicle: other)?
**A.** 170 % of control and 191 % of control

**Q.** What about the T/C (endpoint: median survival time, dose: 3.12 mg/kg/injection, schedule: Q01DX009 (ip), vehicle: saline) of the same molecule?
**A.** 204 % of control

**Q.** And the T/C (endpoint: median survival time, dose: 3.13 mg/kg/injection, schedule: Q01DX005 (iv), vehicle: other)?
**A.** 123 % of control

**Q.** And the T/C (endpoint: median survival time, dose: 3.13 mg/kg/injection, schedule: Q01DX009 (ip), vehicle: other)?
**A.** 235 % of control

**Q.** What about the T/C (endpoint: median survival time, dose: 6.25 mg/kg/injection, schedule: Q01DX005 (iv), vehicle: other) of the same molecule?
**A.** 162 % of control

**Q.** And the T/C (endpoint: median survival time, dose: 6.25 mg/kg/injection, schedule: Q01DX009 (ip), vehicle: other)?
**A.** 194 % of control and 207 % of control and 512 % of control

**Q.** And the T/C (endpoint: median survival time, dose: 6.25 mg/kg/injection, schedule: Q01DX009 (ip), vehicle: saline)?
**A.** 216 % of control

**Q.** What about the T/C (endpoint: median survival time, dose: 12.5 mg/kg/injection, schedule: Q01DX005 (iv), vehicle: other) of the same molecule?
**A.** 197 % of control

**Q.** What about the T/C (endpoint: median survival time, dose: 12.5 mg/kg/injection, schedule: Q01DX005 (iv), vehicle: saline) of the same molecule?
**A.** 178 % of control

**Q.** And the T/C (endpoint: median survival time, dose: 12.5 mg/kg/injection, schedule: Q01DX009 (ip), vehicle: other)?
**A.** 117 % of control and 337 % of control

**Q.** What about the T/C (endpoint: median survival time, dose: 12.5 mg/kg/injection, schedule: Q01DX009 (ip), vehicle: saline) of the same molecule?
**A.** 722 % of control

**Q.** What about the T/C (endpoint: median survival time, dose: 25.0 mg/kg/injection, schedule: Q01DX005 (iv), vehicle: other) of the same molecule?
**A.** 259 % of control

**Q.** What about the T/C (endpoint: median survival time, dose: 25.0 mg/kg/injection, schedule: Q01DX005 (iv), vehicle: saline) of the same molecule?
**A.** 201 % of control

**Q.** What about the T/C (endpoint: median survival time, dose: 25.0 mg/kg/injection, schedule: Q01DX009 (ip), vehicle: other) of the same molecule?
**A.** 273 % of control

**Q.** And the T/C (endpoint: median survival time, dose: 50.0 mg/kg/injection, schedule: Q01DX005 (iv), vehicle: saline)?
**A.** 240 % of control

**Q.** How did the T/C [4] turn out when NCC(O)O.NCC(O)O.NCC(O)O.NCC(O)O.[Mo].[Mo] was run?
**A.** 93 % of control

**Q.** What about the T/C [5] of the same molecule?
**A.** 89 % of control

**Q.** What about the T/C [6] of the same molecule?
**A.** 104 % of control

**Q.** What does the source list for CCOC(=O)c1c(C)c2c(n1C)CC/C(=C\N1CCOCC1)C2=O?
**A.** T/C (endpoint: mean survival time, dose: 100.0 mg/kg/injection, schedule: Q04DX002 (ip), vehicle: saline with Tween-80): 93 % of control; T/C (endpoint: mean survival time, dose: 200.0 mg/kg/injection, schedule: Q04DX002 (ip), vehicle: saline with Tween-80): 93 % of control; T/C (endpoint: mean survival time, dose: 400.0 mg/kg/injection, schedule: Q04DX002 (ip), vehicle: saline with Tween-80): 96 % of control

**Q.** For [Cl][Pt+2][Cl].[NH-]C1C(O)OC(CO)C(O)C1O.[NH-]C1C(O)OC(CO)C(O)C1O (stereo unspecified), which T/C (endpoint: median survival time, dose: 2.5 mg/kg/injection, schedule: Q04DX003 (ip), vehicle: saline) is on record?
**A.** 105 % of control

**Q.** And the T/C (endpoint: median survival time, dose: 5.0 mg/kg/injection, schedule: Q04DX003 (ip), vehicle: saline)?
**A.** 110 % of control

**Q.** And the T/C (endpoint: median survival time, dose: 10.0 mg/kg/injection, schedule: Q04DX003 (ip), vehicle: saline)?
**A.** 93 % of control

**Q.** And the T/C (endpoint: median survival time, dose: 20.0 mg/kg/injection, schedule: Q04DX003 (ip), vehicle: saline)?
**A.** 100 % of control

**Q.** And the T/C (endpoint: median survival time, dose: 25.0 mg/kg/injection, schedule: Q04DX003 (ip), vehicle: saline)?
**A.** 103 % of control

**Q.** And the T/C (endpoint: median survival time, dose: 50.0 mg/kg/injection, schedule: Q04DX003 (ip), vehicle: saline)?
**A.** 105 % of control

**Q.** And the T/C (endpoint: median survival time, dose: 100.0 mg/kg/injection, schedule: Q04DX003 (ip), vehicle: saline)?
**A.** 103 % of control

**Q.** What about the T/C (endpoint: median survival time, dose: 200.0 mg/kg/injection, schedule: Q04DX003 (ip), vehicle: saline) of the same molecule?
**A.** 101 % of control

From PubChem BioAssay AID256 (DTP/NCI, 2004)
